In publication PMC10142558, “In Silico and In Vivo Studies of a Tumor-Penetrating and Interfering Peptide with Antitumoral Effect on Xenograft Models of Breast Cancer” (Pharmaceutics, 2023):
Non-standard residues stand in square brackets, D forms with d. Residues, ends and D or L forms follow the SMILES beside them. Ahx = NCCCCCC(=O)O

Assay: Peptide stability in human serum
Type: in vitro ADME
Details: human serum (Gibco), 37 °C, intact peptide by MALDI-TOF MS, triplicate, mean; for remaining at 6 h: 6 h incubation, read-out: percentage of peptide recovered in human serum, 6 h; for remaining at 24 h: 24 h incubation, read-out: percentage of peptide recovered in human serum, 24 h
Experimental: The peptide TT1-IP was incubated at 37 °C in […] of human serum (Gibco, Illikirch, France) for different periods of time. Samples were collected and peptide degradation stopped by freezing at −20 °C. The peptide was extracted from samples using the Proteo Miner Protein Enrichment System (Bio-Rad, Marnes-la-Coquette, France). The percentage of intact peptide was estimated by mass spectrometry (MS) using MALDI-TOFF with the protocol previously described (Bruker Autoflex II, Palaiseau, France) according to the manufacturer’s instructions. Measurements were performed in triplicate. MS data were analysed using the software Cliprot tools, Flex analysis, Bruker.
iRGD-IP and Lin TT1-IP were incubated in human serum at 37 °C for different periods of time. The integrity of the peptide was analyzed by mass spectrometry (MS). Every measurement was performed in triplicate. Each value is represented as the mean ± standard deviation (SD). Similar results were obtained in two independent experiments.

SMILES | remaining at 3 h (3 h incubation, read-out: percentage of peptide recovered in human serum, 3 h) | remaining at 6 h | remaining at 24 h | remaining at 1 h (1 h incubation, read-out: percentage of peptide recovered in human serum, 1 h)
CC[C@H](C)[C@H](NC(=O)[C@H](CCCNC(=N)N)NC(=O)[C@H](CCC(=O)O)NC(=O)[C@H](CCCNC(=N)N)NC(=O)[C@H](Cc1ccc(O)cc1)NC(=O)[C@H](CCCNC(=N)N)NC(=O)[C@@H](NC(=O)[C@H](CCCCN)NC(=O)[C@H](CC(C)C)NC(=O)[C@H](C)NC(=O)[C@@H](NC(=O)[C@H](CC(C)C)NC(=O)[C@H](CC(C)C)NC(=O)[C@@H](NC(=O)[C@@H](NC(=O)[C@@H](NC(=O)[C@@H](N)CCC(=O)O)[C@@H](C)O)C(C)C)[C@@H](C)O)C(C)C)C(C)C)C(=O)N[C@H](C(=O)NCCCCCC(=O)N[C@@H](C)C(=O)N[C@@H](CCCCN)C(=O)N[C@@H](CCCNC(=N)N)C(=O)NCC(=O)N[C@@H](C)C(=O)N[C@@H](CCCNC(=N)N)C(=O)N[C@@H](CO)C(=O)N[C@H](C(=O)N[C@@H](C)C(N)=O)[C@@H](C)O)[C@@H](C)O [Lin TT1-IP] (H-ETVTLLVALKVRYRERIT[Ahx]AKRGARSTA-NH2) | ~80% | 44% | ~30% | –
CC[C@H](C)[C@H](NC(=O)[C@H](CCCNC(=N)N)NC(=O)[C@H](CCC(=O)O)NC(=O)[C@H](CCCNC(=N)N)NC(=O)[C@H](Cc1ccc(O)cc1)NC(=O)[C@H](CCCNC(=N)N)NC(=O)[C@@H](NC(=O)[C@H](CCCCN)NC(=O)[C@H](CC(C)C)NC(=O)[C@H](C)NC(=O)[C@@H](NC(=O)[C@H](CC(C)C)NC(=O)[C@H](CC(C)C)NC(=O)[C@@H](NC(=O)[C@@H](NC(=O)[C@@H](NC(=O)[C@@H](N)CCC(=O)O)[C@@H](C)O)C(C)C)[C@@H](C)O)C(C)C)C(C)C)C(=O)N[C@H](C(=O)NCCCCCC(=O)N[C@H]1CSSC[C@@H](C(N)=O)NC(=O)[C@H](CC(=O)O)NC(=O)[C@@H]2CCCN2C(=O)CNC(=O)[C@H](CCCCN)NC(=O)[C@H](CC(=O)O)NC(=O)CNC(=O)[C@H](CCCNC(=N)N)NC1=O)[C@@H](C)O [iRGD-IP] | – | 77% | 62% | 91%
